In patent US20120094964A1, “SULFAMOYL BENZOIC ACID DERIVATIVES AS TRPM8 ANTAGONISTS” (priority 2009, published 2012):

What follows are compounds tested against T1, human TRPM8 (Homo sapiens, UniProt Q7Z2W7) (assay: In Vitro human TRPM8 Functional Assay (intracellular Ca2+, Fluo4, FDSS, menthol activation)). Conditions: HEK293 cells stably expressing human TRPM8; activation with L-(-)-Menthol; 11-point dose-response.
T1 construct: expressed in transfected cells
Type: cell-based
Experimental: In Vitro human TRPM8 Functional Assay
The functional activity of compounds was determined by measuring changes in intracellular calcium concentration using a Ca^2+-sensitive fluorescent dye, Fluo4 (Molecular Probes). The changes in fluorescent signal were monitored by the cell imaging technology by Hamamatsu Photonics's Functional Drug Screening System (FDSS).
HEK293 cells stably expressing human TRPM8 were grown in T175 flasks, in a 5% CO2 humidified incubator to about 80% confluence. Media composition consisted of Dulbecco's Modified Eagle Medium (high glucose), 10% fetal calf serum (FCS), 100 units/ml Penicillin, 100 microg/ml Streptomycin and 600 microg/ml Geneticine.
1. Plate-out HEK293-TRPM8 cells (40 microL medium containing 30,000 cells per well) into poly-D-lysine coated 384-well plates (BD FALCON) at 24 hours prior to assay.
1. […] 2. […] 3. Place the plate at room temperature in dark for 1 hour. 4. […] 5. Add 20 microL of compound solutions into each well and leave the plate for 5 minutes under the dark at room temperature. 6. Measure activity by FDSS as follows: • Set the assay plate on the stacker of FDSS • Start the detection of fluorescence intensity • After 30 sec, add 20 microL of 90 microM L-(−)-Menthol
IC50 values for compounds of the present invention were determined from 11-point dose-response studies. Curves were generated using the average of duplicate wells for each data point. Finally, the IC50 values are calculated with the best-fit dose curve determined by XLfit (ID Business Solutions Ltd.).

T1 sequence (Q7Z2W7 whole entry): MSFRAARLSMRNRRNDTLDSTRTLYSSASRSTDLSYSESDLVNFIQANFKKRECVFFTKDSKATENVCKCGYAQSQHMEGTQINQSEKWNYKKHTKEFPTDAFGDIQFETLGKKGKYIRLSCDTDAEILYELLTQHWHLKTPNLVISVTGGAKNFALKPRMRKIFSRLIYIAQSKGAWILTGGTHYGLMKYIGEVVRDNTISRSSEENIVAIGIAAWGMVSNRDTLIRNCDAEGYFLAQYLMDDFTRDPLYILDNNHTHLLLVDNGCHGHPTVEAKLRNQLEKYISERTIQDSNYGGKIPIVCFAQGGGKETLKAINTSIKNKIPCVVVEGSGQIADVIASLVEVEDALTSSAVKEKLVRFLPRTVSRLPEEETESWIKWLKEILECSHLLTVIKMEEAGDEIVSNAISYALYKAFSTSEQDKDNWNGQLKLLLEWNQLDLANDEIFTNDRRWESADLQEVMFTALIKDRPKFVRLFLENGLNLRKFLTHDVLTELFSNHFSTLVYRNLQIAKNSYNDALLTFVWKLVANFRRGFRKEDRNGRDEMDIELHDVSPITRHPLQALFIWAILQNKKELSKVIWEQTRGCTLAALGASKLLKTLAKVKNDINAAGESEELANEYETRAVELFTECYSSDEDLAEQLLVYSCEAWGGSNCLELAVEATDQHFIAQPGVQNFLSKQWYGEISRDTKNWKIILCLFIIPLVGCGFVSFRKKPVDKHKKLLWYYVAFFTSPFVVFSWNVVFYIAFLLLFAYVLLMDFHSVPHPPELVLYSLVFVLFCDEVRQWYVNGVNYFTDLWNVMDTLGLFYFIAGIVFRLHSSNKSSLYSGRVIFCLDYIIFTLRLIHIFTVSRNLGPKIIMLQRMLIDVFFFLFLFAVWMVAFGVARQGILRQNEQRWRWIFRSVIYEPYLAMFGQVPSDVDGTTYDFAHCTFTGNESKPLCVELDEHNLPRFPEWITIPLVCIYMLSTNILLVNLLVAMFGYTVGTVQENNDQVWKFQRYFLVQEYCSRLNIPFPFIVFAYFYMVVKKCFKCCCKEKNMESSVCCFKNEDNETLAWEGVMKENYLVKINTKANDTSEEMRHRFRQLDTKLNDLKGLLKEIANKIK

With `O=C(O)c1ccc(S(=O)(=O)N(Cc2ccccc2F)c2ncc(C(F)(F)F)cc2Cl)cc1` [Example 20, 4-(N-(3-Chloro-5-(trifluoromethyl)pyridin-2-yl)-N-(2-fluorobenzyl)sulfamoyl)benzoic acid] as the compound, how does the IC50 read?
The IC50 was under 1 µM.

Which IC50 does the source give for `NS(=O)(=O)Nc1ccc(S(=O)(=O)N(Cc2ccccc2)c2ncc(C(F)(F)F)cc2Cl)cc1` [Example 196, N-Benzyl-N-(3-chloro-5-(trifluoromethyl)pyridin-2-yl)-4-(sulfamoylamino)benzenesulfonamide] here?
The IC50 was under 1 µM.

`O=C(O)c1ccc(S(=O)(=O)N(Cc2ccccc2C(F)(F)F)c2ncc(Cl)cc2Cl)cc1` [Example 64, 4-(N-(3,5-Dichloropyridin-2-yl)-N-(2-(trifluoromethyl)benzyl)sulfamoyl)benzoic acid] was tested. Which IC50 did it give?
Its IC50 is under 1 µM.

For `O=S(=O)(Nc1cccc(C(F)(F)F)c1)c1ccccc1` [Example 4, N-(3-(Trifluoromethyl)phenyl)benzenesulfonamide], which IC50 is on record?
Its IC50 is 10 to 30 µM.

With `O=C(O)c1ccc(Cl)c(S(=O)(=O)N(Cc2ccccc2)c2ccccc2Cl)c1` [Example 120, 3-(N-Benzyl-N-(2-chlorophenyl)sulfamoyl)-4-chlorobenzoic acid] as the compound, how does the IC50 read?
Its IC50 is 1 to 10 µM.

For `COc1cccc(N(C(C)c2ccccc2F)S(=O)(=O)c2ccccc2F)c1` (stereo not drawn) [Example 92, 2-Fluoro-N-(1-(2-fluorophenyl)ethyl)-N-(3-methoxyphenyl)benzene-sulfonamide], which IC50 is on record?
The IC50 was 1 to 10 µM.

Which IC50 does the source give for `COc1ccc(OC)c(C(C)N(c2cccc(Cl)c2)S(=O)(=O)c2ccc(C)cc2)c1` (stereo not drawn) [Example 86, N-(3-Chlorophenyl)-N-(1-(2,5-dimethoxyphenyl)ethyl)-4-methylbenzene-sulfonamide] here?
The IC50 was 1 to 10 µM.

`N#Cc1ccc(S(=O)(=O)N(Cc2ccccc2)c2ncc(C(F)(F)F)cc2Cl)cc1` [Example 173, N-Benzyl-N-(3-chloro-5-(trifluoromethyl)pyridin-2-yl)-4-cyanobenzenesulfonamide] was tested. Which IC50 did it give?
The IC50 was under 1 µM.

Which IC50 does the source give for `O=C(O)c1ccc(S(=O)(=O)N(Cc2cc(F)ccc2F)c2ncc(C(F)(F)F)cc2Cl)cc1` [Example 46, 4-(N-(3-Chloro-5-(trifluoromethyl)pyridin-2-yl)-N-(2,5-difluorobenzyl)sulfamoyl)benzoic acid] here?
The IC50 was under 1 µM.

Which IC50 does the source give for `COc1ccc(S(=O)(=O)N(Cc2ccccc2)c2ncc(C(F)(F)F)cc2Cl)cc1` [Example 175, N-Benzyl-N-(3-chloro-5-(trifluoromethyl)pyridin-2-yl)-4-methoxybenzenesulfonamide] here?
Its IC50 is under 1 µM.

How did the IC50 turn out when `O=C(O)c1ccc(S(=O)(=O)N(Cc2ccc(OC(F)(F)F)cc2)c2ncc(Cl)cc2Cl)cc1` [Example 63, 4-(N-(3,5-Dichloropyridin-2-yl)-N-(4-(trifluoromethoxy)benzyl)sulfamoyl)benzoic acid] was run?
Its IC50 is under 1 µM.

Which IC50 does the source give for `O=C(O)c1ccc(S(=O)(=O)N(CCN2CCOCC2)c2ncc(C(F)(F)F)cc2Cl)cc1` [Example 57, 4-(N-(3-Chloro-5-(trifluoromethyl)pyridin-2-yl)-N-(2-morpholinoethyl)sulfamoyl)benzoic acid] here?
Its IC50 is 1 to 10 µM.

Which IC50 does the source give for `O=C(O)c1ccc(S(=O)(=O)N(Cc2ccccc2)c2ncc(C(F)(F)F)cc2C2CC2)cc1` [Example 149, 4-(N-Benzyl-N-(3-cyclopropyl-5-(trifluoromethyl)pyridin-2-yl)sulfamoyl)benzoic acid] here?
The IC50 was under 1 µM.

Which IC50 does the source give for `O=C(O)c1ccc(S(=O)(=O)N(Cc2ccc(N3CCCC3=O)cc2)c2ncc(Cl)cc2Cl)cc1` [Example 74, 4-(N-(3,5-Dichloropyridin-2-yl)-N-(4-(2-oxopyrrolidin-1-yl)benzyl)sulfamoyl)benzoic acid] here?
Its IC50 is 1 to 10 µM.

Which IC50 does the source give for `Cc1cc(Cl)cnc1N(Cc1ccc(Cl)cc1C(F)(F)F)S(=O)(=O)c1ccc(C(=O)O)cc1` [Example 75, 4-(N-(4-Chloro-2-(trifluoromethyl)benzyl)-N-(5-chloro-3-methylpyridin-2-yl)sulfamoyl)benzoic acid] here?
Its IC50 is under 1 µM.

With `O=C(O)c1ccc(S(=O)(=O)N(Cc2ccc(F)cc2Cl)c2ncc(C(F)(F)F)cc2Cl)cc1` [Example 40, 4-(N-(2-Chloro-4-fluorobenzyl)-N-(3-chloro-5-(trifluoromethyl)pyridin-2-yl)sulfamoyl)benzoic acid] as the compound, how does the IC50 read?
The IC50 was under 1 µM.

With `COc1ccc(N(C(C)c2ccc(Cl)cc2)S(=O)(=O)c2ccccc2)cc1` (stereo not drawn) [Example 87, N-(1-(4-Chlorophenyl)ethyl)-N-(4-methoxyphenyl) benzenesulfonamide] as the compound, how does the IC50 read?
Its IC50 is 1 to 10 µM.

With `O=C(O)c1ccc(S(=O)(=O)N(CCOc2ccc(F)cc2)c2ncc(Cl)cc2Cl)cc1` [Example 73, 4-(N-(3,5-Dichloropyridin-2-yl)-N-(2-(4-fluorophenoxy)ethyl)sulfamoyl)benzoic acid] as the compound, how does the IC50 read?
Its IC50 is 10 to 30 µM.

For `O=C(O)c1ccc(S(=O)(=O)N(Cc2ccccc2)c2ncc(C(F)(F)F)cc2Cl)cc1Cl` [Example 188, 4-(N-Benzyl-N-(3-chloro-5-(trifluoromethyl)pyridin-2-yl)sulfamoyl)-2-chlorobenzoic acid], which IC50 is on record?
Its IC50 is under 1 µM.

With `CC1(c2ccc(CN(c3ncc(Cl)cc3Cl)S(=O)(=O)c3ccc(C(=O)O)cc3)cc2)CC1` [Example 70, 4-(N-(3,5-Dichloropyridin-2-yl)-N-(4-(1-methylcyclopropyl)benzyl)sulfamoyl)benzoic acid] as the compound, how does the IC50 read?
Its IC50 is under 1 µM.

`Cn1cc(-c2ccc(CN(c3ncc(C(F)(F)F)cc3Cl)S(=O)(=O)c3ccc(C(=O)O)cc3)cc2)cn1` [Example 152, 4-(N-(3-Chloro-5-(trifluoromethyl)pyridin-2-yl)-N-(4-(1-methyl-1H-pyrazol-4-yl)benzyl)sulfamoyl)benzoic acid] was tested. Which IC50 did it give?
Its IC50 is under 1 µM.

Which IC50 does the source give for `COc1ccc(C(C)N(c2ccc(OC)cc2)S(=O)(=O)c2ccc(C)c(Cl)c2)cc1` (stereo not drawn) [Example 137, 3-Chloro-N-(4-methoxyphenyl)-N-(1-(4-methoxy-phenyl)ethyl)-4-methyl benzenesulfonamide] here?
The IC50 was 10 to 30 µM.

How did the IC50 turn out when `O=C(O)c1cc(S(=O)(=O)N(Cc2ccccc2)c2ccccc2Cl)ccc1Cl` [Example 121, 5-(N-Benzyl-N-(2-chlorophenyl)sulfamoyl)-2-chlorobenzoic acid] was run?
The IC50 was 1 to 10 µM.

How did the IC50 turn out when `CC(=O)Nc1ccc(S(=O)(=O)N(Cc2ccccc2)c2ccccn2)cc1` [Example 107, N-(4-(N-Benzyl-N-(pyridin-2-yl)sulfamoyl)phenyl)acetamide] was run?
Its IC50 is 1 to 10 µM.

Which IC50 does the source give for `O=C(O)c1ccc(S(=O)(=O)N(Cc2ccc(-c3ccccc3)cc2)c2ncc(C(F)(F)F)cc2Cl)cc1` [Example 158, 4-(N-([1,1′-Biphenyl]-4-ylmethyl)-N-(3-chloro-5-(trifluoromethyl)pyridin-2-yl)sulfamoyl)benzoic acid] here?
Its IC50 is under 1 µM.

`COc1ccc(N(C(C)c2ccccc2OC)S(=O)(=O)c2ccc(C)cc2)cc1` (stereo not drawn) [Example 89, N-(4-Methoxyphenyl)-N-(1-(2-methoxyphenyl)ethyl)-4-methylbenzene-sulfonamide] was tested. Which IC50 did it give?
The IC50 was 1 to 10 µM.

How did the IC50 turn out when `COc1cccc(C(C)N(c2ccccc2)S(=O)(=O)c2cccc(F)c2)c1` (stereo not drawn) [Example 138, 3-Fluoro-N-(1-(3-methoxy-phenyl)ethyl)-N-phenyl-benzenesulfonamide] was run?
The IC50 was 1 to 10 µM.

Which IC50 does the source give for `O=C(O)c1ccc(Cl)c(S(=O)(=O)N(Cc2ccccc2)c2ccc(F)cc2)c1` [Example 123, 3-(N-Benzyl-N-(4-fluorophenyl)sulfamoyl)-4-chlorobenzoic acid] here?
Its IC50 is 10 to 30 µM.

Which IC50 does the source give for `COc1cc(C(=O)O)ccc1S(=O)(=O)N(Cc1ccccc1)c1ncc(C(F)(F)F)cc1Cl` [Example 146, 4-(N-Benzyl-N-(3-chloro-5-(trifluoromethyl)pyridin-2-yl)sulfamoyl)-3-methoxybenzoic acid] here?
The IC50 was under 1 µM.

`O=C(O)c1ccc(S(=O)(=O)N(Cc2csc(-c3ccccc3)n2)c2ncc(C(F)(F)F)cc2Cl)cc1` [Example 198, 4-(N-(3-Chloro-5-(trifluoromethyl)pyridin-2-yl)-N-((2-phenylthiazol-4-yl)methyl)sulfamoyl)benzoic acid] was tested. Which IC50 did it give?
The IC50 was under 1 µM.

How did the IC50 turn out when `COc1cccc(N(CC(=O)N2CCN(Cc3ccccc3)CC2)S(=O)(=O)c2ccccc2)c1` [Example 84, N-(2-(4-Benzylpiperazin-1-yl)-2-oxoethyl)-N-(3-methoxyphenyl)benzene-sulfonamide] was run?
The IC50 was 1 to 10 µM.

Which IC50 does the source give for `COc1ccc(OC)c(C(C)N(c2ccc(F)cc2)S(=O)(=O)c2ccc(F)cc2C)c1` (stereo not drawn) [Example 135, N-(1-(2,5-Dimethoxyphenyl)ethyl)-4-fluoro-N-(4-fluoro-phenyl)-2-methylbenzene-sulfonamide] here?
Its IC50 is 1 to 10 µM.

For `COc1ccc(N(Cc2ccccc2)S(=O)(=O)c2cc(C(=O)O)ccc2Cl)cc1` [Example 124, 3-(N-Benzyl-N-(4-methoxyphenyl)sulfamoyl)-4-chlorobenzoic acid], which IC50 is on record?
Its IC50 is 1 to 10 µM.

With `CS(=O)(=O)NCc1ccc(S(=O)(=O)N(Cc2ccccc2)c2ncc(C(F)(F)F)cc2Cl)cc1` [Example 176, N-Benzyl-N-(3-chloro-5-(trifluoromethyl)pyridin-2-yl)-4-(methylsulfonamidomethyl)benzenesulfonamide] as the compound, how does the IC50 read?
Its IC50 is under 1 µM.

With `COc1ccc(N(C(C)c2ccccc2F)S(=O)(=O)c2ccc(F)cc2)cc1` (stereo not drawn) [Example 88, 4-Fluoro-N-(1-(2-fluorophenyl)ethyl)-N-(4-methoxyphenyl)benzene-sulfonamide] as the compound, how does the IC50 read?
The IC50 was under 1 µM.

For `O=C(O)c1cccc(S(=O)(=O)N(Cc2ccccc2)c2ccccc2Cl)c1` [Example 112, 3-(N-Benzyl-N-(2-chlorophenyl)sulfamoyl) benzoic acid], which IC50 is on record?
Its IC50 is 10 to 30 µM.
